What was measured:
[1] = tested on: cellular histone deacetylase enzymatic activity in Jurkat E6-1 cells; assay: Inhibition of cellular HDAC activity, Boc-Lys(Tfa)-AMC substrate (Cell Lys-TFA); format: cell-based
Procedure, shortened: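 Jurkat E6-1 cells (75,000/well) were treated with a 16-point compound dilution for 2 h at 37 °C, then exposed to Boc-Lys(Tfa)-AMC for 3 h. Lysis buffer containing trypsin was added overnight (15-16 h), and AMC fluorescence was read at Ex 355/Em 460 nm.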

[2] = biological target: Histone Deacetylase 4 (HDAC4) catalytic domain (Homo sapiens (Human), UniProt P56524); assay: Biochemical HDAC inhibition assay, fluorogenic substrate Boc-Lys(Tfa)-AMC
Histone Deacetylase 4 (HDAC4) catalytic domain, sequence (P56524 648-1032): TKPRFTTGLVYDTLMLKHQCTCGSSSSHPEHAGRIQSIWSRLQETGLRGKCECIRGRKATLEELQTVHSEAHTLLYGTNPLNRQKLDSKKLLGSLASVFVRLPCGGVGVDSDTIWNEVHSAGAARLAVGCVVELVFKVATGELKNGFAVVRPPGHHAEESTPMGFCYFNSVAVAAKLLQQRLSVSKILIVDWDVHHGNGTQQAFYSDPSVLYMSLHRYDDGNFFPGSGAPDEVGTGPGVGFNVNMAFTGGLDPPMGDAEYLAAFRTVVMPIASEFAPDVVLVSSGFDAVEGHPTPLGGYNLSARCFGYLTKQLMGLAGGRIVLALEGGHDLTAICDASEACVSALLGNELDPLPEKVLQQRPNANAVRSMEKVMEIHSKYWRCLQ
Procedure, shortened: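 Human HDAC4 catalytic domain (aa 648-1032, C-terminal His6) at 0.2 μg/mL working solution was tested against a 16-point compound dilution series in Tris buffer pH 8.0 for 15 min at 37 °C. Substrate Boc-Lys(Tfa)-AMC was prepared at 50 μM (5×). The reaction was stopped with trypsin plus reference inhibitor for 1 h at 37 °C, and AMC fluorescence was read at Ex 355/Em 460 nm.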

[3] = tested on: cellular histone deacetylase activity (Lys-Ac); assay: Inhibition of cellular HDAC activity (Cell Lys-Ac); format: cell-based; conditions: Lys-Ac substrate
[4] = Homo sapiens, Jurkat E6.1, Lys-TFA substrate

SMILES | IC50 ([1]; Lys-TFA substrate) | IC50 [2] | IC50 [3] | IC50 [1, 4]
Cc1cc(F)ccc1-c1nc2c(s1)CC(C(=O)NO)(c1cccc(F)c1C)C2 (single isomer, unassigned) [Example 74, E1-(abs)-5-(3-Fluoro-2-methylphenyl)-2-(4-fluoro-2-methylphenyl)-N-hydroxy-5,6-dihydro-4H-cyclopenta[d]thiazole-5-carboxamide] | 540 nM | 780 nM | > 50000 nM | 
Cc1c(F)cccc1[C@]1(C(=O)NO)Cc2cnn(-c3ccc(OC(F)F)cc3)c2C1 [Example 20, (S)-1-(4-(Difluoromethoxy)phenyl)-5-(3-fluoro-2-methylphenyl)-N-hydroxy-1,4,5,6-tetrahydrocyclopenta[c]pyrazole-5-carboxamide] |  | 109 nM | > 50000 nM | 250 nM
Cc1c(F)cccc1C1(C(=O)NO)Cc2nc(-c3ccccc3F)sc2C1 (single isomer, unassigned) [Example 61, E1-(abs)-5-(3-Fluoro-2-methylphenyl)-2-(2-fluorophenyl)-N-hydroxy-5,6-dihydro-4H-cyclopenta[d]thiazole-5-carboxamide] | 120 nM | 480 nM | > 50000 nM | 
Cc1c(F)cccc1[C@]1(C(=O)NO)Cc2nc(-c3ccnn3C)sc2C1 [Example 68, (S)-5-(3-Fluoro-2-methylphenyl)-N-hydroxy-2-(1-methyl-1H-pyrazol-5-yl)-5,6-dihydro-4H-cyclopenta[d]thiazole-5-carboxamide] |  | 240 nM | > 50000 nM | 120 nM
Cc1c(F)cccc1[C@]1(C(=O)NO)Cc2cn(-c3ncccc3F)nc2C1 [Example 29, (S)-5-(3-Fluoro-2-methylphenyl)-2-(3-fluoropyridin-2-yl)-N-hydroxy-2,4,5,6-tetrahydrocyclopenta[c]pyrazole-5-carboxamide] |  | 104 nM | > 50000 nM | 69 nM
Cc1c(F)cccc1C1(C(=O)NO)CCc2nc(C3CC3)[nH]c(=O)c2C1 (stereo not drawn) [Example 40, 2-Cyclopropyl-6-(3-fluoro-2-methylphenyl)-N-hydroxy-4-oxo-3,4,5,6,7,8-hexahydroquinazoline-6-carboxamide] |  | 1600 nM | > 50000 nM | 580 nM
Cc1c(F)cccc1C1(C(=O)NO)CCc2nc(-c3ccccc3)ncc2C1 (stereo not drawn) [Example 47, 6-(3-Fluoro-2-methylphenyl)-N-hydroxy-2-phenyl-5,6,7,8-tetrahydroquinazoline-6-carboxamide] |  | 3200 nM | > 50000 nM | 1100 nM
Cc1c(F)cccc1[C@]1(C(=O)NO)Cc2cn(-c3ccc(OC(F)F)cc3)nc2C1 [Example 21, (S)-2-(4-(difluoromethoxy)phenyl)-5-(3-fluoro-2-methylphenyl)-N-hydroxy-2,4,5,6-tetrahydrocyclopenta[c]pyrazole-5-carboxamide] |  | 147 nM | > 50000 nM | 175 nM
Cc1c(F)cccc1[C@]1(C(=O)NO)Cc2cn(-c3ncccc3Cl)nc2C1 [Example 28, (S)-2-(3-Chloropyridin-2-yl)-5-(3-fluoro-2-methylphenyl)-N-hydroxy-2,4,5,6-tetrahydrocyclopenta[c]pyrazole-5-carboxamide] |  | 65 nM | > 50000 nM | 69 nM
Cc1c(F)cccc1C1(C(=O)NO)CCc2c(cnn2-c2ccccc2)C1 (single isomer, unassigned) [Example 32, E2-(abs)-5-(3-fluoro-2-methylphenyl)-N-hydroxy-1-phenyl-4,5,6,7-tetrahydro-1H-indazole-5-carboxamide] | 2900 nM | 17300 nM | > 50000 nM | 
Cc1c(F)cccc1C1(C(=O)NO)CCc2cnc(C3CC3)nc2CC1 (stereo not drawn) [Example 83, 2-Cyclopropyl-7-(3-fluoro-2-methylphenyl)-N-hydroxy-6,7,8,9-tetrahydro-5H-cyclohepta[d]pyrimidine-7-carboxamide] |  | 1300 nM | > 50000 nM | 490 nM
Cc1c(F)cccc1[C@]1(C(=O)NO)Cc2cnn(C3CC3)c2C1 [Example 58, (S)-1-Cyclopropyl-5-(3-fluoro-2-methylphenyl)-N-hydroxy-1,4,5,6-tetrahydrocyclopenta[c]pyrazole-5-carboxamide] |  | 48 nM | > 50000 nM | 125 nM
Cc1cc(F)ccc1-c1nc2c(s1)CC(C(=O)NO)(c1cccc(F)c1C)C2 (single isomer, unassigned) [Example 75, E2-(abs)-5-(3-Fluoro-2-methylphenyl)-2-(4-fluoro-2-methylphenyl)-N-hydroxy-5,6-dihydro-4H-cyclopenta[d]thiazole-5-carboxamide] | 51 nM | 270 nM | > 50000 nM | 
Cc1c(F)cccc1C1(C(=O)NO)CCc2cn(CC(F)(F)F)nc2CC1 (single isomer, unassigned) [Example 84, E1-(abs)-6-(3-Fluoro-2-methylphenyl)-N-hydroxy-2-(2,2,2-trifluoroethyl)-2,4,5,6,7,8-hexahydrocyclohepta[c]pyrazole-6-carboxamide] |  | 480 nM | > 50000 nM | 1400 nM
Cc1c(F)cccc1C1(C(=O)NO)Cc2nc(-c3ccccc3F)sc2C1 (single isomer, unassigned) [Example 62, E2-(abs)-5-(3-fluoro-2-methylphenyl)-2-(2-fluorophenyl)-N-hydroxy-5,6-dihydro-4H-cyclopenta[d]thiazole-5-carboxamide] | 49 nM | 193 nM | > 50000 nM | 
Cc1c(F)cccc1C1(C(=O)NO)CCc2ncsc2C1 (stereo not drawn) [Example 44, 6-(3-Fluoro-2-methylphenyl)-N-hydroxy-4,5,6,7-tetrahydrobenzo[d]thiazole-6-carboxamide] |  | 1000 nM | > 50000 nM | 1500 nM

Reference: patent publication US10065948B2, “Histone deacetylase inhibitors and compositions and methods of use thereof” (CHDI Foundation, Inc., priority 2014, dated 2018)
